{
  "source": "patent US11952369B2",
  "about": "(Kadmon Corporation, LLC, priority 2022, dated 2024)",
  "key": {"ROCK2": {"molecular_target": "T1, ROCK2 (Rattus norvegicus, UniProt Q62868)", "T1 construct": "Full length rat ROCK1 and ROCK2 proteins were isolated from various tumor cell lines or tissues by immunoabsorption; endogenous in cells", "T1 sequence (Q62868 whole entry)": "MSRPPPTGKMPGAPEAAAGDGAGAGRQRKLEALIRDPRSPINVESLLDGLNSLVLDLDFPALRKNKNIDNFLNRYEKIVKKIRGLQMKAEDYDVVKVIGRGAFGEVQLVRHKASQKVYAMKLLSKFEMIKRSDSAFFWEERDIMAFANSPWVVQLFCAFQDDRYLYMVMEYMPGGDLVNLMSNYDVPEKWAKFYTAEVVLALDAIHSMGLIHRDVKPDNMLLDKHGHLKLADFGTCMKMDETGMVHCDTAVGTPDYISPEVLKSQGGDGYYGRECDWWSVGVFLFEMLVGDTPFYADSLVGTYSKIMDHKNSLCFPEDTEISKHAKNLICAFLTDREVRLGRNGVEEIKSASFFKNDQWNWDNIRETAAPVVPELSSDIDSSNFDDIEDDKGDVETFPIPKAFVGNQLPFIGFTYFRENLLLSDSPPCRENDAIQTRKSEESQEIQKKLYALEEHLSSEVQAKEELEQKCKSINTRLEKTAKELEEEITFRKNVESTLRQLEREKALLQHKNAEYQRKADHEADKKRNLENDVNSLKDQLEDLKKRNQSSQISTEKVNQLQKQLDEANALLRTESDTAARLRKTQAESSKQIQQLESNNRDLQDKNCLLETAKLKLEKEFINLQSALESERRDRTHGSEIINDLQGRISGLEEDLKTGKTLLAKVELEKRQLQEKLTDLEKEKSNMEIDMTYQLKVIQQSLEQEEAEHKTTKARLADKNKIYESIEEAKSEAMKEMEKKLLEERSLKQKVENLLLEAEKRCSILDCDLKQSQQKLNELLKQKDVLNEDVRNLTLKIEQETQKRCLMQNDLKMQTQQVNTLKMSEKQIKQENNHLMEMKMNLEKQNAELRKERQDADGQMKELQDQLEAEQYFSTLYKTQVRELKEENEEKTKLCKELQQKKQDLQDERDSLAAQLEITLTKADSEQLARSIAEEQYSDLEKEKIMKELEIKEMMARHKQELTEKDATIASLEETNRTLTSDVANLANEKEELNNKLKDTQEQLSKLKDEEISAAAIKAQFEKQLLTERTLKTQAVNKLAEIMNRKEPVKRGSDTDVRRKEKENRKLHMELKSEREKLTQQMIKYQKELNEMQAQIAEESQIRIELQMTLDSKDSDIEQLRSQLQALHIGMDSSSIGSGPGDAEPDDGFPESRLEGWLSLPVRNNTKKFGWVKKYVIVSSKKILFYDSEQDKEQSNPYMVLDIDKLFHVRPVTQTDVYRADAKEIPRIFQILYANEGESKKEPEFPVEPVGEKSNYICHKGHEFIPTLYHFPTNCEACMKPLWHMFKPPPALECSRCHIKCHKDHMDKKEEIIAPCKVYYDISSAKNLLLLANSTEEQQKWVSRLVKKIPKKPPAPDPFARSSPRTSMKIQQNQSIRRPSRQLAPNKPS", "assay": "Inhibition of ROCK2 enzymatic activity, immunoabsorbed full length enzyme, S6 kinase substrate peptide, [γ33P]ATP", "assay_type": "biochemical", "settings": "for Ki: ROCK2", "method": "Full length rat ROCK1 and ROCK2 proteins were isolated from various tumor cell lines or tissues by immunoabsorption to 24-well microtiter plates pre-coated with antibodies specific for each isozyme. Reactions were initiated by the addition of S6 kinase substrate peptide, [γ33P]ATP, and study drug, and incubated at 37° C. for 20 minutes. Reactions were terminated by addition of phosphoric acid and the radioactivity was quantified using standard methods."}, "[1]": {"assay": "Metabolite exposure quantified in clinical trials of the belumosudil development program", "assay_type": "in vivo, human", "settings": "clinical trials across the belumosudil development program"}, "cytochrome P450 CYP3A4": {"molecular_target": "cytochrome P450 CYP3A4 (Homo sapiens, UniProt P08684)", "sequence (P08684 whole entry)": "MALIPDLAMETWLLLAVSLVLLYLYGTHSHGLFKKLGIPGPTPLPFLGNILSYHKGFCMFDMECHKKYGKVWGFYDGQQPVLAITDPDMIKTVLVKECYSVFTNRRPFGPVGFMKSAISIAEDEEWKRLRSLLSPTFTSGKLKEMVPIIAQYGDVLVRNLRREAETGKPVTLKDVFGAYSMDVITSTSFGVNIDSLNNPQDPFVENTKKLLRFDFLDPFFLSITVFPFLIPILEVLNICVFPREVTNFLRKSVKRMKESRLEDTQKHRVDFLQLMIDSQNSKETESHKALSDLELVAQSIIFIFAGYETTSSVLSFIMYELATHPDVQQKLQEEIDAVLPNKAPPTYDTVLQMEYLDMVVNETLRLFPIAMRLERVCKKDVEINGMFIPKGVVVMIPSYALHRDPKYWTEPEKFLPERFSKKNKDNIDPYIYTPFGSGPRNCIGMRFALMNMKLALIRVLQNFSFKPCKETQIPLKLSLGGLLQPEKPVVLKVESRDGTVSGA", "assay": "In vitro assessments of belumosudil metabolism", "assay_type": "in vitro ADME"}, "[2]": {"assay": "Phase 1 study part 1: absolute bioavailability, oral 200-mg tablet plus [14C]-belumosudil IV microtracer, plasma PK", "assay_type": "in vivo, human", "settings": "for F, AUCinf (absolute bioavailability, AUCinf,oral/AUCinf,IV): dose-adjusted", "method": "This was a single-center, nonrandomized, open-label, 2-part study in 5 healthy male subjects aged 30 to 65 years. All oral doses were administered following an overnight fast and a standard breakfast on the day of dosing.\n(timed to occur at the expected maximum concentration [Cmax]). To determine absolute bioavailability, a microtracer dose was chosen as it negates the need for an IV formulation with good stability. Additionally, due to use of a very low dose, further nonclinical studies such as local tolerance and general toxicology studies were not warranted.\nBlood samples for IV [^14C]-belumosudil PK analysis and total radioactivity were collected at −0.25, −0.16, −0.08, 0, 0.08, 0.16, 0.25, 0.5, 0.75, 1, 1.5, 2, 3, 4, 5, 6, 8, 10, 12, 22, 34, and 46 hours after the end of infusion (EOI). All samples were processed to plasma within 30 minutes of collection by centrifugation at 2000 g for 10 minutes at 4° C., and\nTotal [^14C]-belumosudil concentrations were determined by accelerator mass spectrometry (AMS). […] Selected samples were diluted with commercial plasma to ensure that concentrations would fall within the acceptable range for AMS analysis. The samples were converted to graphite through combustion to CO2 followed by reduction to graphite. The graphite targets were then analyzed by AMS (LLOQ of 0.00489, 0.00557, 0.00485, 0.00402, and 0.00372 ng equiv/mL for individual subjects). All ^14C data was background-corrected based on predose [^14C]-belumosudil concentrations.\nEluate fractions corresponding to [^14C]-belumosudil were collected before AMS analysis (LLOQ of 1.55 pg equiv/mL).\nPK parameter estimates were used to calculate absolute bioavailability and metabolite-to-parent ratio."}, "[3]": {"assay": "Phase 1 study: safety assessments", "assay_type": "in vivo, human", "method": "Safety was assessed throughout the study by AEs, vital signs, electrocardiograms, physical examinations, and clinical laboratory tests. The safety population included all subjects who received at least 1 dose of the study drug (oral or IV) in either part of the study."}, "Solubility": {"assay": "Solubility", "assay_type": "physicochemical", "settings": "in vitro assessments"}, "[4]": {"assay": "Phase 1 study part 2: metabolite identification and profiling in plasma, urine and feces", "assay_type": "in vivo, human", "settings": "mean across subjects", "method": "To determine the most appropriate sampling pools for metabolite identification/profiling, plasma, urine, and fecal samples were pooled based on mass balance data obtained as described above. Plasma samples were pooled for individual subjects by time points that represented at least 80% of the plasma total radioactivity, as well as pooled across subjects before dosing and at 4-hour and 8-hour time points. Urine samples were pooled from 0 to 24 hours for individual subjects and across subjects for predose and 0- to 6-hour intervals. Fecal samples were pooled for individual subjects depending on time points that represented at least 80% of the […] total radioactivity and across subjects at 0- to 24- and 24- to 48-hour intervals.\n[^14C]-belumosudil concentrations were quantified by LC-MS/MS. Chemical structures were then identified for those radioactive components that accounted for >10% of circulating radioactivity in plasma and >10% of the dose in urine and feces. Radioactive components that represented <10% of circulating radioactivity in plasma and <10% of the dose in urine and feces were also identified. Metabolite identification was then performed using accurate mass positive and negative ion full scan and positive ion product ion analyses. […] Any identified components were compared with [^14C] radiochromatograms to identify the metabolite. Predose plasma and urine pools were used to correct for endogenous components during metabolite identification."}, "[5]": {"settings": "arithmetic mean (standard deviation), Part 1, belumosudil after oral 200-mg tablet"}, "[6]": {"settings": "arithmetic mean (standard deviation), Part 1, oral 200-mg tablet vs IV microtracer"}, "[7]": {"settings": "geometric mean (geometric CV %), Part 1, belumosudil after oral 200-mg tablet"}, "[8]": {"settings": "geometric mean (geometric CV %), Part 1, oral 200-mg tablet vs IV microtracer"}},
  "note": "Like-named read-outs stand apart in the source and are kept apart here.",
  "data": [
    {"molecule": "NC(=O)COc1cccc(-c2nc(Nc3ccc4[nH]ncc4c3)c3ccccc3n2)c1", "note": "[KD025m1, 2-(3-(4-(1H-indazol-5-ylamino)quinazolin-2-yl)phenoxy)acetamide]", "values": [
      {"measurement": "Ki", "setting": "ROCK2", "result": "55 ± 2", "unit": "nM"},
      {"measurement": "inhibition of ROCK2 (Ki) relative to belumosudil", "setting": "ROCK2; fold lower inhibition than belumosudil", "result": "comparable"},
      {"measurement": "exposure relative to the parent", "setting": "[1]", "result": "< 5", "unit": "%"}
    ]},
    {"molecule": "CC(C)NC(=O)COc1cccc(-c2nc(Nc3ccc4[nH]ncc4c3)c3ccccc3n2)c1", "note": "[Belumosudil, 2-{3-[4-(1H-indazol-5-ylamino)-2-quinazolinyl]phenoxy}-N-(propan-2-yl) acetamide]", "values": [
      {"measurement": "Ki", "setting": "ROCK2", "result": "40 ± 5", "unit": "nM"},
      {"measurement": "enzyme dependence of metabolism", "setting": "cytochrome P450 CYP3A4", "result": "primarily dependent on cytochrome P450 CYP3A4 activity"},
      {"measurement": "time at which peak belumosudil concentrations were reached after the oral dose", "setting": "[2]; Part 1, oral 200-mg tablet", "result": 3, "unit": "h"},
      {"measurement": "AUCextrap", "setting": "[2]; [5]", "result": "2.18 (0.919) %"},
      {"measurement": "AUCinf", "setting": "[2]; [5]", "result": "8890 (4240) ng or ng equiv × h/mL"},
      {"measurement": "AUClast", "setting": "[2]; [5]", "result": "8730 (4270) ng or ng equiv × h/mL"},
      {"measurement": "Clearanance (apparent clearance)", "setting": "[2]; [5]", "result": "423 (126) mL/min"},
      {"measurement": "Cmax", "setting": "[2]; [5]", "result": "1960 (649) ng or ng equiv/mL"},
      {"measurement": "F, AUCinf (absolute bioavailability)", "setting": "[2]; [6]", "result": "64.5 (10.4) %"},
      {"measurement": "F, Cmax (bioavailability)", "setting": "[2]; [6]", "result": "23.8 (2.21) %"},
      {"measurement": "AUCextrap", "setting": "[2]; [7]", "result": "1.95 (64.6); %"},
      {"measurement": "AUCinf", "setting": "[2]; [7]", "result": "8300 (40.2); ng or ng equiv × h/mL"},
      {"measurement": "AUClast", "setting": "[2]; [7]", "result": "8120 (41.2); ng or ng equiv × h/mL"},
      {"measurement": "Clearanance (apparent clearance)", "setting": "[2]; [7]", "result": "402 (40.2); mL/min"},
      {"measurement": "Cmax", "setting": "[2]; [7]", "result": "1870 (36.7); ng or ng equiv/mL"},
      {"measurement": "F, Cmax (bioavailability)", "setting": "[2]; [8]", "result": "23.7(9.3); %"},
      {"measurement": "F, AUCinf (absolute bioavailability, AUCinf,oral/AUCinf,IV)", "setting": "[2]; [8]", "result": "63.7 (17.3); %"},
      {"measurement": "F, AUCinf (absolute bioavailability, AUCinf,oral/AUCinf,IV)", "setting": "[2]; geometric mean (geometric CV %), Part 1, oral 200-mg tablet vs IV microtracer, listed as belumosudil", "result": 63.7, "unit": "%"},
      {"measurement": "half-life", "setting": "[2]; male, human, plasma, other: intravenous and oral, IV and oral dosing comparable, read-out: half-life values following IV and oral dosing", "result": "5 to 6", "unit": "h"},
      {"measurement": "Tmax", "setting": "[2]; male, human, plasma, po, 200 mg", "result": 2, "unit": "h"},
      {"measurement": "half-life", "setting": "[2]; male, human, plasma, po, 200 mg, arithmetic mean (standard deviation), Part 1, belumosudil after oral 200-mg tablet, read-out: T1/2 (converted)", "result": 6.05, "unit": "h"},
      {"measurement": "half-life", "setting": "[2]; male, human, plasma, po, 200 mg, geometric mean (geometric CV %), Part 1, belumosudil after oral 200-mg tablet, read-out: T1/2 (terminal half-life) (converted)", "result": 5.3, "unit": "h"},
      {"measurement": "laboratory, vital sign, electrocardiogram, physical examination findings", "setting": "[3]; either part of the study", "result": "No clinically significant laboratory, vital sign, electrocardiogram, or physical examination findings"},
      {"measurement": "deaths, serious AEs, severe AEs, AEs leading to withdrawal", "setting": "[3]; healthy male subjects, both parts of the study", "result": "no deaths, serious AEs, AEs of severe intensity, or AEs leading to subject withdrawal"},
      {"measurement": "treatment-emergent AE", "setting": "[3]; part 1, 200-mg tablet followed by [14C]-belumosudil microtracer infusion, one event, resolved spontaneously 2.5 hours after onset", "result": "mild, possibly related rash"},
      {"measurement": "treatment-emergent AEs", "setting": "[3]; part 2, 200-mg [14C]-belumosudil capsule", "result": "no treatment-emergent AEs were reported"},
      {"measurement": "pH dependence of solubility", "setting": "Solubility", "result": "pH dependent"},
      {"measurement": "% ROI, feces (mean % contribution to total sample radioactivity)", "setting": "[4]", "result": "(29.60) %"},
      {"measurement": "% ROI, feces (mean % contribution to total sample radioactivity)", "setting": "[4]; listed as belumosudil", "result": 30, "unit": "%"},
      {"measurement": "% ROI, plasma (mean % contribution to total plasma radioactivity)", "setting": "[4]", "result": "P6 (64.17) %"},
      {"measurement": "% ROI, plasma (mean % contribution to total plasma radioactivity)", "setting": "[4]; listed as belumosudil", "result": 64, "unit": "%"}
    ]}
  ]
}
